# Reference: patent publication US8778966B2, “Quinolinone derivatives as PARP and tank inhibitors” (Janssen Pharmaceutica, NV, priority 2007, dated 2014)
# Where two headings read alike, the source gives them in different places.
# Columns and labels:
# PC-3 cells = experiment: Antiproliferative activity, Alamar Blue assay, PC-3 cells; format: cell-based, human; details: for IC50: Homo sapiens, PC-3, PC3 cells, read-out: PC3 antiproliferative activity pIC50 (converted); for PC3 antiproliferative activity pIC50: PC3 cells
# Summary of the method: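 Resazurin-based fluorescence (540 nm ex/590 nm em) measured after 4-day compound treatment plus 24 hrs dye incubation at 37° C. Cells plated at 4.5×10^3 cells/ml, adhered 24 hr first. pIC50 from probit-derived IC50 on % viable cells versus untreated, triplicate wells.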
# tubulin = experiment: Tubulin polymerization assay; format: biochemical; parameters: key: a compound showing 0 to 50% inhibition at 20 μM is reported as score 1; Score 2 compounds are defined as compound showing more than 50% inhibition at 20 μM and less than 50% inhibition at 5 μM; a compound showing more than 50% inhibition at 5 μM is reported as score 3; details: tested at 20 μM and 5 μM
# Summary of the method: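 Cytoskeleton kit tubulin was run in a 10 µl final volume at 37 °C, with fluorescence read every minute for 1 h. Polymerization was taken as the maximum slope (4-point linear regression) and expressed as % of no-compound control. Compounds were tested at 20 µM, then at 5 µM if inhibition exceeded 50%, and scored by % inhibition.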
SMILES,IC50 (PC-3 cells) [nM],also measured
"CCc1cc2ccc([C@](C)(C#N)Cc3ccccc3)cc2[nH]c1=O (single isomer, unassigned) [Compound 45]",> 10000,melting point: 162 °C
"CCc1cc2ccc(C(C)(C#N)CC3COc4ccccc4O3)cc2[nH]c1=O (single isomer, unassigned) [Compound 47]",–,PC3 antiproliferative activity pIC50 (PC-3 cells): <5; melting point: 176 °C
CCc1cc2ccc(C(C)(C#N)Cc3cccc(C#C[Si](C)(C)C)c3)cc2[nH]c1=O (stereo not shown) [Compound 1],–,IC50 (PC-3 cells; Alamar Blue): 631 nM; melting point: 178 °C
CCc1cc2ccc(C(C)(C#N)Cc3cccc(CN(C)C)c3)cc2[nH]c1=O (stereo not shown) [Compound 7],7940,–
CCc1cc2ccc(C(C)(C#N)Cc3cccc(COC)c3)cc2[nH]c1=O (stereo not shown) [Compound 8],631,melting point: 122 °C
CCc1cc2ccc(C(C)(C#N)Cc3cccc(CO)c3)cc2[nH]c1=O (stereo not shown) [Compound 9],631,melting point: 182 °C
CCc1cc2ccc(C(C#N)(Cc3ccccc3)CC3CC3)cc2[nH]c1=O (stereo not shown) [Compound 28],> 10000,melting point: 212 °C
CC(C#N)(Cc1ccccc1)c1ccc2cc(CO)c(=O)[nH]c2c1 (stereo not shown) [Compound 40],> 10000,melting point: 176 °C
CCc1cc2ccc(C(C)(C#N)Cc3c(F)ccc(C)c3F)cc2[nH]c1=O (stereo not shown) [Compound 41],631,melting point: 190 °C
CCc1cc2ccc(C(C)(C#N)Cc3nc(OC)cc(OC)n3)cc2[nH]c1=O (stereo not shown) [Compound 43],158,melting point: 90 °C
CCc1cc2ccc(C(C)(C#N)Cc3ccccc3)cc2[nH]c1=O (stereo not shown) [Compound 44],–,melting point: 168 °C
CCc1cc2ccc(C(C)(C#N)Cc3cccc(Br)c3)cc2[nH]c1=O (stereo not shown) [Compound 49],158,melting point: 186 °C
CCOP(=O)(OCC)c1cccc(CC(C)(C#N)c2ccc3cc(CC)c(=O)[nH]c3c2)c1 (stereo not shown) [Compound 50],794,melting point: 80 °C
CCc1cc2ccc(C(C)(C#N)Cc3cccc(C#N)c3)cc2[nH]c1=O (stereo not shown) [Compound 51],200,melting point: 192 °C
CCc1cc2ccc(C(C)(C#N)CCOc3ccc([N+](=O)[O-])cc3)cc2[nH]c1=O (stereo not shown) [Compound 54],794,melting point: 216 °C
CCc1cc2ccc(C(C)(C#N)Cc3cccc(CN4CCN(C)CC4)c3)cc2[nH]c1=O (stereo not shown) [Compound 57],> 10000,–
CCc1cc2ccc(C(C)(C#N)Cc3cccc(CN4CCOCC4)c3)cc2[nH]c1=O (stereo not shown) [Compound 58],2000,–
CCc1cc2ccc(C(C)(C#N)Cc3cccc(CNC)c3)cc2[nH]c1=O (stereo not shown) [Compound 59],10000,–
CCc1cc2ccc(C(C)(C#N)Cc3cccc(CNCCOC)c3)cc2[nH]c1=O (stereo not shown) [Compound 60],7940,–
CCc1cc2ccc(C(C)(C#N)Cc3cccc(CNCCN4CCOCC4)c3)cc2[nH]c1=O (stereo not shown) [Compound 61],> 10000,–
CCc1cc2ccc(C(C)(C#N)Cc3cccc(C(=O)NCCOC)c3)cc2[nH]c1=O (stereo not shown) [Compound 62],7940,–
CCc1cc2ccc(C(C)(C#N)Cc3cccc(C(=O)N(C)C)c3)cc2[nH]c1=O (stereo not shown) [Compound 63],3160,–
CCc1cc2ccc(C(C)(C#N)Cc3cccc(N4CCNCC4)c3)cc2[nH]c1=O (stereo not shown) [Compound 64],> 10000,–

SMILES,IC50 (PC-3 cells) [nM],also measured
CCc1cc2ccc(C(C)(C#N)Cc3cccc(N4CCN(C)CC4)c3)cc2[nH]c1=O (stereo not shown) [Compound 66],5010,tubulin polymerisation score (tubulin): 1 (a compound showing 0 to 50% inhibition at 20 μM is reported as score 1)
CCc1cc2ccc(C(C)(C#N)Cc3cccc(OCC4CC4)c3)cc2[nH]c1=O (stereo not shown) [Compound 67],1260,–
CCc1cc2ccc(C(C)(C#N)Cc3cccc(OCCCN4CCOCC4)c3)cc2[nH]c1=O (stereo not shown) [Compound 68],7940,–
CCc1cc2ccc(C(C)(C#N)Cc3cccc(OCCCN4CCN(C)CC4)c3)cc2[nH]c1=O (stereo not shown) [Compound 69],7940,–
Cc1cc2ccc(C(C)(C#N)Cc3noc(-c4cccc(C(F)(F)F)c4)n3)cc2[nH]c1=O (stereo not shown) [Compound 70],2510,–
Cc1cc2ccc(C(C)(C#N)Cc3cc4ccccc4s3)cc2[nH]c1=O (stereo not shown) [Compound 71],2000,–
Cc1cc2ccc(C(C)(C#N)Cc3ccc(Cl)s3)cc2[nH]c1=O (stereo not shown) [Compound 72],2000,–
Cc1cc2ccc(C(C)(C#N)Cc3ccc(C(F)(F)F)o3)cc2[nH]c1=O (stereo not shown) [Compound 73],2000,–
Cc1cc2ccc(C(C)(C#N)Cc3cccc4cccnc34)cc2[nH]c1=O (stereo not shown) [Compound 74],1000,–
Cc1cc2ccc(C(C)(C#N)Cc3nc4ccccc4s3)cc2[nH]c1=O (stereo not shown) [Compound 75],200,tubulin polymerisation score (tubulin): 1 (a compound showing 0 to 50% inhibition at 20 μM is reported as score 1)
Cc1cc2ccc(C(C)(C#N)Cc3ccccc3)cc2[nH]c1=O (stereo not shown) [Compound 76],631,–
CCc1cc2ccc(C(C)(C#N)Cc3ccc(OC)c(C#N)c3)cc2[nH]c1=O (stereo not shown) [Compound 77],1580,–
CCc1cc2ccc(C(C)(C#N)Cc3cc(C)ccc3C)cc2[nH]c1=O (stereo not shown) [Compound 78],398,–
CCc1cc2ccc(C(C)(C#N)Cc3ccc(F)c(C)c3)cc2[nH]c1=O (stereo not shown) [Compound 79],794,–
CCc1cc2ccc(C(C)(C#N)Cc3cc(Cl)ccc3OC)cc2[nH]c1=O (stereo not shown) [Compound 80],398,–
CCc1cc2ccc(C(C)(C#N)Cc3cccc(Br)c3C)cc2[nH]c1=O (stereo not shown) [Compound 81],501,–
CCc1cc2ccc(C(C)(C#N)Cc3ccc(Cl)c(C(F)(F)F)c3)cc2[nH]c1=O (stereo not shown) [Compound 82],631,–
CCc1cc2ccc(C(C)(C#N)Cc3ccc(C)c(F)c3F)cc2[nH]c1=O (stereo not shown) [Compound 83],2000,–
CCc1cc2ccc(C(C)(C#N)Cc3c(C)cccc3C)cc2[nH]c1=O (stereo not shown) [Compound 84],3980,–
CCc1cc2ccc(C(C)(C#N)Cc3nc4ccccc4o3)cc2[nH]c1=O (stereo not shown) [Compound 85],1000,tubulin polymerisation score (tubulin): 1 (a compound showing 0 to 50% inhibition at 20 μM is reported as score 1)
CCc1cc2ccc(C(C)(C#N)Cc3csc(C)n3)cc2[nH]c1=O (stereo not shown) [Compound 86],6310,–
CCc1cc2ccc(C(C)(C#N)Cc3ccc4nccnc4c3)cc2[nH]c1=O (stereo not shown) [Compound 87],1000,–
CCc1cc2ccc(C(C)(C#N)Cc3c(C)c(C)cc(C)c3C)cc2[nH]c1=O (stereo not shown) [Compound 88],10000,–

SMILES,IC50 (PC-3 cells) [nM],also measured
CCc1cc2ccc(C(C)(C#N)Cc3c(C)c(C)c(C)c(C)c3C)cc2[nH]c1=O (stereo not shown) [Compound 89],> 10000,–
CCc1cc2ccc(C(C)(C#N)Cc3cc(Cl)cc4c3OCOC4)cc2[nH]c1=O (stereo not shown) [Compound 90],–,PC3 antiproliferative activity pIC50 (PC-3 cells): 5.8
CCc1cc2ccc(C(C)(C#N)Cc3cc4c(cc3Cl)OCO4)cc2[nH]c1=O (stereo not shown) [Compound 91],398,–
CCc1cc2ccc(C(C)(C#N)Cc3cc(Cl)cc4c3OCOC4)cc2[nH]c1=O (stereo not shown) [Compound 92],–,PC3 antiproliferative activity pIC50 (PC-3 cells): 5.4
CCc1cc2ccc(C(C)(C#N)Cc3nncn3C)cc2[nH]c1=O (stereo not shown) [Compound 93],10000,–
CCc1cc2ccc(C(C)(C#N)Cc3cccc4nnn(C)c34)cc2[nH]c1=O (stereo not shown) [Compound 94],> 10000,–
CCc1cc2ccc(C(C)(C#N)Cc3nn(C)c4ccccc34)cc2[nH]c1=O (stereo not shown) [Compound 95],631,tubulin polymerisation score (tubulin): 2
CCc1cc2ccc(C(C)(C#N)Cc3cn4ccccc4n3)cc2[nH]c1=O (stereo not shown) [Compound 96],> 10000,tubulin polymerisation score (tubulin): 1 (a compound showing 0 to 50% inhibition at 20 μM is reported as score 1)
CCc1cc2ccc(C(C)(C#N)Cc3cccnc3)cc2[nH]c1=O (stereo not shown) [Compound 97],> 10000,–
CCc1cc2ccc(C(C)(C#N)Cc3ccncc3)cc2[nH]c1=O (stereo not shown) [Compound 98],> 10000,tubulin polymerisation score (tubulin): 1 (a compound showing 0 to 50% inhibition at 20 μM is reported as score 1)
CCc1cc2ccc(C(C)(C#N)Cc3cc(Cl)ccc3Cl)cc2[nH]c1=O (stereo not shown) [Compound 99],398,tubulin polymerisation score (tubulin): 3 (a compound showing more than 50% inhibition at 5 μM is reported as score 3)
CCc1cc2ccc(C(C)(C#N)Cc3ccccc3C#N)cc2[nH]c1=O (stereo not shown) [Compound 101],3160,–
CCc1cc2ccc(C(C)(C#N)Cc3ccccc3OC(F)(F)F)cc2[nH]c1=O (stereo not shown) [Compound 102],1000,–
CCc1cc2ccc(C(C)(C#N)Cc3ccccc3C(F)(F)F)cc2[nH]c1=O (stereo not shown) [Compound 103],631,–
Cc1cc2ccc(C(C)(C#N)Cc3cc4ccccc4[nH]3)cc2[nH]c1=O (stereo not shown) [Compound 234],–,IC50 (PC-3 cells; Alamar Blue): 10000 nM; melting point: > 260 °C
CCc1cc2ccc(C(C)(C#N)Cc3ccc(F)c(C#N)c3)cc2[nH]c1=O (stereo not shown) [Compound 267],–,tubulin polymerisation score (tubulin): 2; IC50 (PC-3 cells; Alamar Blue): 501 nM
CCc1cc2ccc(C(C)(C#N)CCOc3ccccc3C#N)cc2[nH]c1=O (stereo not shown) [Compound 276],–,tubulin polymerisation score (tubulin): 1 (a compound showing 0 to 50% inhibition at 20 μM is reported as score 1); IC50 (PC-3 cells; Alamar Blue): 2510 nM
CCc1cc2ccc(C(C)(C#N)CCOc3cc(Cl)c(Cl)cc3Cl)cc2[nH]c1=O (stereo not shown) [Compound 277],–,tubulin polymerisation score (tubulin): 2; IC50 (PC-3 cells; Alamar Blue): 501 nM
CCc1cc2ccc(C(C)(C#N)CCOc3ccccc3F)cc2[nH]c1=O (stereo not shown) [Compound 278],–,IC50 (PC-3 cells; Alamar Blue): 2000 nM
CCc1cc2ccc(C(C)(C#N)CCOc3ccc4c(c3)OCO4)cc2[nH]c1=O (stereo not shown) [Compound 279],–,IC50 (PC-3 cells; Alamar Blue): 1580 nM
CCc1cc2ccc(C(C)(C#N)Cc3cc(OC)cc(OC)c3)cc2[nH]c1=O (stereo not shown) [Compound 332],–,IC50 (PC-3 cells; Alamar Blue): 251 nM
